{
  "source": "patent US6432413B1",
  "about": "“Functional improvements in Fahr disease” (Wayne State University, priority 1998, dated 2002)",
  "type_in_all_cases": "in vivo, human",
  "key": {"[1]": {"test_system": "patient with Fahr disease", "assay": "Previous drug treatments of the same Fahr disease patient", "conditions": "before the study", "text": "Prior to initiating and throughout the study, they were maintained on the same doses of baclofen, pergolide, lorazepam, naproxen, diltiazem, probanthiline bromide, and hyoscyamine sulfate. They were placed on isosorbide dinitrate 2 months into the study for ischemic heart disease."}, "cerebral calcification": {"test_system": "cerebral calcification", "assay": "Quantitation of cerebral calcification by serial CAT scans", "text": "FIG. 1 is a series of axial CAT scans and 3-dimensional reconstructions of basal ganglia calcification. Panels A-D show the extent of cerebral calcification on axial CAT scan images showing involvement of the basal ganglia, thalamus, and cerebellum. Panels E-H are 3-dimensional reconstructions of the basal ganglia, thalami, and pineal gland in different projections. The patient is directly facing the viewer in Panel E, turning to the left by 30 degrees in Panel F, and by 60 degrees in Panel G. Panel H is a projection looking from above and behind the patient, in the same orientation as the CAT scans described above. […]\nFIG. 3 is a graph showing quantitation of cerebral calcification. […]\nQuantitative measurements of cerebral calcification were obtained using contiguous regions of calcification, defined as those containing pixels greater than 50 Hounsfield units, on each 3 mm coronal image. […]\nAfter obtaining baseline measurements and informed consent, the patient was begun on 15 mg/kg of disodium etidronate given once daily for two 6 month periods, separated by a 6 month period off of the drug, which was carried out as an internal control and to allow for normal bone mineralization. Serial neurologic examinations were performed by the same physician, and included three quantitative measurements: counting from 1-20, counting from 20-1, and walking 15 feet and back. […]"}, "[2]": {"assay": "Side effects during treatment of the Fahr disease patient", "conditions": "15 mg/kg once daily", "description": "(§1) After obtaining baseline measurements and informed consent, the patient was begun on 15 mg/kg of disodium etidronate given once daily for two 6 month periods, separated by a 6 month period off of the drug, which was carried out as an internal control and to allow for normal bone mineralization. Serial neurologic examinations were performed by the same physician, and included three quantitative measurements: counting from 1-20, counting from 20-1, and walking 15 feet and back. Instructions were given with the same amount of encouragement for each of the serial measurements. Duplicate measures of counting 1-20 and walking taken two weeks apart were averaged to produce baseline values. There was little variation between the duplicate measures. Baseline and follow-up videotapes of the neurologic exam and CAT scans, to quantify the amount of cerebral calcification, were obtained in a uniform manner.\nFor example, they could button their shirts, which they could not do previously."}, "[3]": {"test_system": "patient with familial, idiopathic cerebral calcinosis of the basal ganglia (Fahr disease)", "assay": "Treatment of a patient with Fahr disease: serial neurologic examinations, timed speech and gait, Blessed Dementia Scale", "text": "FIG. 2 is a series of graphs showing the effect of treatment on speech and gait. Timed measurements of speech (counting from 1-20 or 20-1) and gait (walking 15 feet and back) were made during two treatment cycles with disodium etidronate. The start and stop times indicate the times at which the medication was begun and discontinued, respectively. Each zero time point for counting 1-20 and walking 15 feet and back represents an average of 2 separate measurements, taken 2 weeks apart.\nThe patient is a person with hypertension and osteoarthritis who presented with transient right hemiparesis and dysarthria. […] Their major neurologic disabilities prior to treatment were slowness of gait and speech, rigidity, spasticity, cerebellar ataxia, dystonia, and dysphagia. They scored 6 points out of a possible 37 points on the right side of the Blessed Dementia Scale, which measures memory and concentration (6). A score of 0 points is without error. They had been having frequent emotional outbursts and inappropriate hypersexuality.\nas §1"}, "[4]": {"conditions": "second six month course of treatment"}},
  "data": [
    {"molecule": "NCC(CC(=O)O)c1ccc(Cl)cc1", "note": "(centres unmarked) [baclofen]", "values": [
      {"measurement": "improvement with previous drug treatment", "setting": "[1]", "value": "minimal improvement"}
    ]},
    {"molecule": "CC(O)(P(=O)(O)O)P(=O)(O)O", "note": "[disodium etidronate]", "values": [
      {"measurement": "shape and size of the cerebral calcification, qualitative comparison of CAT scans and 3-dimensional reconstructions", "setting": "cerebral calcification; after treatment", "value": "did not demonstrate any change"},
      {"measurement": "brain calcium content, quantitative measurements from serial CAT scans (density x area)", "setting": "cerebral calcification; before treatment vs after first (6 months) and second (18 months) treatment periods", "value": "did not show any reduction in brain calcium content, but perhaps a small increase"},
      {"measurement": "side effects", "setting": "[2]", "value": "no side effects from the medication, except for transient elevations in serum phosphate"},
      {"measurement": "gait and speech after stopping the medication", "setting": "[3]; 6 month period off of the drug", "value": "significant deterioration in their gait, but little loss in the gains made with their speech"},
      {"measurement": "speech, attention span, emotional outbursts and inappropriate sexual behavior as felt by the patient's family", "setting": "[3]; after one month on 15 mg/kg once daily", "value": "their speech had become clearer, their attention span improved, and their emotional outbursts and inappropriate sexual behavior ceased"},
      {"measurement": "bradykinesia and emotional lability", "setting": "[3]; after treatment", "value": "clearly improved"},
      {"measurement": "spasticity, cerebellar ataxia, and dystonia", "setting": "[3]; after treatment", "value": "unchanged"},
      {"measurement": "Blessed Dementia Scale score", "setting": "[3]; eighteen months after beginning treatment, previous score 6, 0 points is without error", "value": 2},
      {"measurement": "gait and fine motor skills", "setting": "[3]; first treatment period, 15 mg/kg once daily", "value": "His gait also improved, together with fine motor skills"},
      {"measurement": "increase in the speed of speech and gait (counting 1-20, 20-1, walking 15 feet and back)", "setting": "[3]; over the first six months of treatment", "value": "two-fold increase"},
      {"measurement": "counting from 1-20", "setting": "[3]; [4]", "value": "improvement"},
      {"measurement": "counting from 20-1", "setting": "[3]; [4]", "value": "some deterioration"},
      {"measurement": "gait", "setting": "[3]; [4]", "value": "again improved"},
      {"measurement": "speech", "setting": "[3]; [4]", "value": "did not change appreciably"},
      {"measurement": "other measurements of the speed of motor movement (rapid finger tapping and knee patting)", "setting": "[3]; videotape before medication vs end of first six month treatment", "value": "improved considerably"},
      {"measurement": "speech (rate and clarity)", "setting": "[3]; within four months of treatment, 15 mg/kg once daily", "value": "their speech became more rapid and clear"}
    ]},
    {"molecule": "O=C1Nc2ccc(Cl)cc2C(c2ccccc2Cl)=NC1O", "note": "(centres unmarked) [lorazepam]", "values": [
      {"measurement": "improvement with previous drug treatment", "setting": "[1]", "value": "minimal improvement"}
    ]},
    {"molecule": "CCCN1C[C@H](CSC)C[C@@H]2c3cccc4[nH]cc(c34)C[C@H]21", "note": "[pergolide]", "values": [
      {"measurement": "improvement with previous drug treatment", "setting": "[1]", "value": "minimal improvement"}
    ]},
    {"molecule": "carbidopa-levodopa", "values": [
      {"measurement": "improvement with previous drug treatment", "setting": "[1]", "value": "minimal improvement"}
    ]}
  ]
}
